Data set [1] relates to general activity. In words: Locomotor activity (LMA) test. The data set is classed as in vivo, mice. The settings on record: in combination with cisplatin. Here is the method:
To quantify signs of cisplatin-induced pain, the von Frey test was used (see below) which measures the decrease in threshold to induce a withdrawal response to a mechanical stimulus (hyperalgesia, one of the characteristics of CIPN). To assess cisplatin-induced numbness, the adhesive removal test (ART) was used. The time it took for the mouse to have a behavioral response to the patch (i.e. shaking or attempted removal) was recorded as a measure of sensory deficit or numbness. To determine if behavioral changes were due to altered general activity or motor function, the locomotor activity (LMA) test and the rotarod test was used. For LMA mice were placed in an open-field testing cage and movement was measured for 5 minutes. For the rotarod, mice were trained for two days and then tested on the rotarod (with increasing speeds) for 5 minutes. Time on the rotarod was recorded.

For data set [2], the system named is GFAP. Nature of the data set: GFAP immunofluorescence of lumbar spinal cord dorsal horn (astrocyte activation). The data set is classed as in vivo, mice. The conditions noted are these: two rounds of cisplatin, then 3 doses of 10 mg/kg. An excerpt:
For quantification of astrocyte and microglia activation, lumbar spinal cords were collected on day 22. This collection day was after completion of cisplatin treatment and 3 injections of compound 001. […] Spinal cords were processed and stained with antibodies specific for GFAP and Iba-1. Images were captured under blinded conditions from the lumbar dorsal horn using a Leica SPE confocal microscope (Leica Microsystems, Buffalo Grove, Ill.).
For assessing astrocyte activation, paraformaldehyde fixed frozen 6 μm sections of lumbar spinal cord (L1-L6) were incubated with an antibody against glial fibrillary acidic protein (GFAP) (Rabbit; Abcam, Cambridge, Mass.) followed by Alexa-594-goat anti-rabbit IgG (Life Technologies, Carlsbad, Calif.) as described (Zhang H, et al. Evidence that spinal astrocytes but not microglia contribute to the pathogenesis of Paclitaxel-induced painful neuropathy. J. Pain, 2012; 13(3):293-303). Images were captured using a Leica SPE confocal microscope (Leica Microsystems, Buffalo Grove, Ill.). GFAP staining intensity was quantified using Image J software for percent positive GFAP staining in which intensity thresholds were maintained between samples. All immunofluorescence analysis were done by an experimenter blinded to the treatment groups.

Data set [3] deals with cisplatin-induced spontaneous pain. Nature of the data set: Conditioned place preference test for spontaneous pain. The data set is classed as in vivo, mice. The conditions noted are these: cisplatin followed by two weeks of daily compound. As to the method: Spontaneous pain was tested using a conditioning paradigm with retigabine as the conditioned stimulus that was originally described in a rat model (Yang Q, et al. Persistent pain after spinal cord injury is maintained by primary afferent activity. The Journal of Neuroscience. 2014; 34(32):10765-9; Ahmed B, et al. Recent changes in practice of elective percutaneous coronary intervention for stable angina. Circ. Cardiovasc. Qual. Outcomes. 2011; 4(3):300-5.). Retigabine is a […] with a rapid onset of action but only brief duration (45-60 min). […] Mol. Pain. 2010; 6(49); Passmore G M, et al. KCNQ/M currents in sensory neurons: significance for pain therapy. The Journal of Neuroscience, 2003; 23(18):7227-36). Briefly, during pre-conditioning, mice were allowed to freely explore for 15 min the CPP apparatus. The CPP apparatus consisted of 2 chambers (18×20 cm, one dark, one white) connected by a 15 cm hallway (Stoelting, Wood Dale, Ill.). The time spent in the light chamber was recorded. During the conditioning phase, saline was injected intraperitoneally in the morning and the mice were then kept in the dark chamber for 20 min. Three hours later, the analgesic retigabine (#R-100, Alomone laboratory, Jerusalem, Israel) […] the mice were immediately placed in the light chamber for 20 min. Conditioning was repeated for four consecutive days. […]

The test system of data set [4] is acetylated α-tubulin. Nature of the data set: Western blot of acetylated α-tubulin in tibial nerves. The settings on record: saline+compound and cisplatin+compound treated mice, 11 doses. The data set is classed as in vivo. As to the method:
Tibial nerves retrieved from the XF24 assay plate were used for western blot analysis of levels of acetylated α-tubulin and mitochondrial proteins cytochrome c oxidase subunit IV (Cox IV), succinate dehydrogenase complex subunit A (SDHA) and voltage-dependent anion channel (VDAC). Tissues were homogenized in RIPA buffer (50 mM Tris-HCl, pH 7.5, 500 mM NaCl, 2.5 mM MgCl2, 1% NP-40, 10% glycerol) containing proteinase inhibitors by sonication and 10 μg of protein was separated by SDS/PAGE and transferred to PVDF membrane for immunoblot analyses. The membranes were blocked with 5% non-fat dry milk in PBST (phosphate-buffered saline containing 0.1% Tween 20) and probed with primary antibodies recognizing acetylated lysine (Rabbit monoclonal; Abcam, Cambridge, United Kingdom), α-tubulin (Rabbit polyclonal; Cell Signaling Technology, Danvers, Mass.), Cox IV (Mouse monoclonal; Life Technologies, Carlsbad, Calif.), SDHA (Rabbit polyclonal; Cell Signaling Technology, Danvers, Mass.) and VDAC (Rabbit polyclonal; Cell Signaling Technology, Danvers, Mass.) followed by HRP-conjugated anti-mouse, anti-rabbit, or anti-β-actin antibodies (Jackson Laboratory, Bar Harbor, Me.). […] The images were acquired using ImageQuant LAS 4000 (GE Healthcare Life Sciences, Little Chalfont, United Kingdom) and densitometrically analyzed using Image J software.
In general terms: A western blot detects proteins with antibodies after separation by electrophoresis.

As to `O=C(NO)c1cnc(NC2(c3ccccc3)CCC(F)(F)CC2)nc1` [compound 001], the “general activity (locomotor activity)” value in data set [1] was “no effect on general activity”. Also, in data set [2], the “GFAP expression in dorsal horn of spinal cord” value is “normalized GFAP expression to levels of saline-treated animals”. For the same molecule, in data set [3], the “change in time spent in retigabine-paired light chamber (spontaneous pain)” value is “did not develop a preference for the retigabine-paired light chamber”. In addition, the “α-tubulin acetylation in tibial nerves” value in data set [4] is on record as “increased α-tubulin acetylation”.
